We go through six substances from patent publication US8242082B2, “Antibacterial peptide” (Seikagaku Corporation, priority 2004, dated 2012).

The subject of assay [1] is E. coli, S. aur, MSSA, and MRSA. Briefly: Determination of antibacterial (bacteriocidal) effect, Alamar Blue. The format is cell-based, Escherichia coli; Staphylococcus aureus. The following applies: for antibacterial effect: gram-negative and gram-positive bacteria, 37° C. for six hours, absorbance difference with Alamar Blue; for antibacterial effect, comparison among test substances: relative ranking from the figures. How it is done:
Each of E. coli, S. aur, MSSA, and MRSA was subjected to shaking culture overnight at 37° C. by use of a Muller-Hinton medium (product of DIFCO), and the cells precipitated through centrifugation were separated and washed with a Phenol Red-free RPMI 1640 medium. Strains of E. coli, S. aur, MSSA, and MRSA were prepared so that the cell concentrations were adjusted to 1×10^8 CFU/mL, 2×10^8 CFU/mL, 2×10^8 CFU/mL, and 2×10^8 CFU/mL, respectively, the concentrations being determined from the corresponding absorbance values at 650 nm by means of a spectrophotometer.
By use of a 96-well plate, each cell suspension (1×10^6 CFU/mL) (100 μL), a test substance (10 μL), an RPMI 1640 medium (70 μL), and an Alamar Blue reagent (product of BIOSOURCE) (20 μL) were admixed. In the presence of Alamar Blue, pink fluorescence attributed to live cells is observed, whereas the admixture remains blue when the cells are dead.
Each admixture was incubated at a constant temperature of 37° C. for six hours, and the difference between absorbance at 560 nm and that at 595 nm was obtained.
The procedure of the aforementioned <2-1> was repeated, except that 1-18, 1-18m, and 1-18 m2 were tested and the difference between absorbance at 550 nm and that at 590 nm was measured, to thereby determine the antibacterial effect of the test substances with respect to each of E. coli, S. aur, MSSA, and MRSA. […] In FIG. 6, the test results of 1-18 are represented by “CAP11,” and the black dots, white dots, black squares, and white squares denote the antibacterial effects to E. coli, S. aur, MSSA, and MRSA, respectively (X-axis: test substance concentration, Y-axis: difference between absorbance at 550 nm and that at 590 nm).
On the technique in general: The colour change of resazurin is a common sign of viable cells or microbes.

In assay [2] the test system is binding between LPS and RAW 246.7 cells. Briefly: Determination of LPS-cell-binding inhibitory effect (Alexa 488-labeled LPS, FACS). It is filed as cell-based. The following applies: for LPS-cell-binding inhibitory effect: RAW 246.7 cells, Alexa 488-labeled LPS 100 ng/mL; for LPS-cell-binding inhibitory effect, comparison among test substances: relative ranking from the figures. How it is done: RAW 246.7 cells (macrophage cell strain) were cultured by use of an RPMI 1640 medium containing 10% FCS and collected. The collected cells were diluted with the same medium so that the cell concentration was adjusted to 5×10^5/mL. To the diluted liquid (500 μL), a test substance (5 μL) was added, and the mixture was subjected to shaking culture at 37° C. for 10 minutes. Subsequently, LPS that had been labeled with Alexa 488 (final concentration: 100 ng/mL) was added to the culture, and the mixture was subjected to shaking culture at 37° C. for 15 minutes. The collected cells were washed with PBS (3 mL×2) and suspended again in PBS (300 μL). Binding of Alexa 488-labeled LPS was measured through FACS. Control samples (a sample containing no labeled LPS (background) and an antibacterial-peptide-free sample (maximum LPS binding degree) were treated similarly, and the degree of the inhibitory effect on binding between LPS and RAW 246.7 cells was determined on the basis of comparison with control samples.
In a manner similar to that of the aforementioned <2-2>, the LPS-cell-binding inhibitory effect of the same test substances was determined. […] In FIG. 7, the test results of 1-18, 1-18m, and 1-18 m2 are represented by white dots, black dots, and black squares, respectively (X-axis: test substance concentration, Y-axis: percent binding of LPS to cells).

Assay [3] deals with Candida albicans (CA53133 strain). In words: Determination of antibacterial (bacteriocidal) effect (antifungal effect) to fungi, Alamar Blue. To be noted: for antibacterial (bacteriocidal) effect to fungi: Candida albicans, 35° C. for fourteen hours. It is filed as cell-based. How it is done: Candida albicans (CA53133 strain) was grown in Sabouraud dextrose agar. Colonies formed in the agar were collected and suspended to serum-free and Phenol Red-free RPM11640 liquid medium (SIGMA). The concentration of cells in the medium was determined from the corresponding absorbance value at 550 nm by means of spectrophotometer, and the concentration is adjusted to 0.5−2.5×10^4 CFU/mL. By use of a 96-well plate, each cell suspension (0.5-2.5×10^4 CFU/mL) (20 μL), a test substance (CAP11, 1-18 or 1-18 m2) (10 μL), an RPMI 1640 liquid medium (150 μL), and an Alamar Blue reagent (product of BIOSOURCE) (20 μL) were admixed. Each admixture was incubated at a constant temperature of 35° C. for fourteen hours, and the difference between absorbance at 550 nm and that at 595 nm was obtained.

Entries after “also recorded” stand apart in the source; their conditions may differ. No end group written: not given here.

With “9-26: partial peptide, 9th to 26th amino acid residues of the CAP11 monomer”, the antibacterial effect result in assay [1] was “exhibited an antibacterial effect”. The LPS-cell-binding inhibitory effect result in assay [2] is given as “an LPS-cell-binding inhibitory effect”.

For the substance “16-33: partial peptide, 16th to 33th amino acid residues of the CAP11 monomer (LGRKIGKTGRKVWKAWRE; A partial peptide of CAP11)”, the antibacterial effect entry in assay [1] is “exhibited an antibacterial effect”. In addition, the LPS-cell-binding inhibitory effect result in assay [2] is “an LPS-cell-binding inhibitory effect”.

GLRKKFRKTRKRIQKLGR [1-18]: in assay [1], the antibacterial effect result is recorded as “exhibited an antibacterial effect; also recorded: exhibit an antibacterial (bacteriocidal) effect” and the “antibacterial effect, comparison among test substances” value is “most potent antibacterial effect; also recorded: then 1-18”. In addition, in assay [2], the LPS-cell-binding inhibitory effect result is reported as “exhibit an LPS-cell-binding inhibitory effect” and the “LPS-cell-binding inhibitory effect, comparison among test substances” value is on record as “most potent; also recorded: then 1-18”. Besides, in assay [3], the “antibacterial (bacteriocidal) effect to fungi” value (“antibacterial … to fungi” for short) is “exhibit an antibacterial (bacteriocidal) effect to fungi”.

Regarding GLRKLFRKLLKLIQKLLR [1-18m], the antibacterial effect entry in assay [1] is given as “exhibit an antibacterial (bacteriocidal) effect”. In addition, in assay [2], the LPS-cell-binding inhibitory effect entry is “exhibit an LPS-cell-binding inhibitory effect”.

Consider “KLRKLFRKLLKLIRKLLR [1-18 m2, synthesized and substituted form of CAP11 (1-18)]”, for which, in assay [1], the antibacterial effect entry is on record as “exhibit an antibacterial (bacteriocidal) effect” and the “antibacterial effect, comparison among test substances” value is “strongest antibacterial effect”. In assay [2], the LPS-cell-binding inhibitory effect result is on record as “exhibit an LPS-cell-binding inhibitory effect” and the “LPS-cell-binding inhibitory effect, comparison among test substances” value is “strongest effect”. The “antibacterial … to fungi” value in assay [3] is recorded as “exhibit an antibacterial (bacteriocidal) effect to fungi”. Moreover, the “antifungal effect, comparison among test substances” value in assay [3] (relative ranking from FIG. 8) is reported as “strongest antifungal effect”.

In the case of “monomer: CAP11 monomer having 43 amino acid units and no cysteine disulfide bond (GLRKKFRKTRKRIGKLGRKIGKTGRKVWKAWREYGQIPYPCRI; A partial peptide of CAP11) [reference compound]”, the antibacterial effect entry in assay [1] is given as “exhibited an antibacterial effect”. In assay [2], the LPS-cell-binding inhibitory effect result is “an LPS-cell-binding inhibitory effect” and the “LPS-cell-binding inhibitory effect, comparison among test substances” value is recorded as “No significant difference”. Moreover, in assay [3], the “antibacterial … to fungi” value was “exhibit an antibacterial (bacteriocidal) effect to fungi”.
